Results as given in ChEMBL document CHEMBL1221220, “Transport and signaling via the amino acid binding site of the yeast Gap1 amino acid transceptor” (Nat Chem Biol, 2009).
Non-standard residues stand in square brackets, D forms with d. Residues, ends and D or L forms follow the SMILES beside them. Hyp = O=C(O)[C@@H]1C[C@@H](O)CN1

The compounds below were run against T1, General amino-acid permease GAP1 (Saccharomyces cerevisiae) (UniProt P19145). Details: sigma1278b, at 5 mM.
T1 sequence (whole entry): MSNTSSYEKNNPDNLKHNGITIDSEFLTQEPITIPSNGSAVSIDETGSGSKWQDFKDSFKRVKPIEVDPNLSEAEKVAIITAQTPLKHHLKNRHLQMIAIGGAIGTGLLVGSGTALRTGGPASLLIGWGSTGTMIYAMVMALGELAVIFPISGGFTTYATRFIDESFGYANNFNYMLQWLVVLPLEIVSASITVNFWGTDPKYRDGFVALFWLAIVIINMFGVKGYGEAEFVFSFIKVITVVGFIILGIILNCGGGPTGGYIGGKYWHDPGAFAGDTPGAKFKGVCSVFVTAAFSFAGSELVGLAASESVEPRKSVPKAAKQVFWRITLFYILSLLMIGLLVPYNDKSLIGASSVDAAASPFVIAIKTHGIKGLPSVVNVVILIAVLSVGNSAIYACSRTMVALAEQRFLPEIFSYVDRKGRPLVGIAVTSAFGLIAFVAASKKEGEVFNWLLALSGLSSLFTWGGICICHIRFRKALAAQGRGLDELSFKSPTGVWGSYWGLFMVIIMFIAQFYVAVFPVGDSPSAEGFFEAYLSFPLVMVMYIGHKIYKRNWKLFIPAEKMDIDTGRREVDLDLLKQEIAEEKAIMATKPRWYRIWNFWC
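Note: amino acid uptake through Gap1 in nitrogen-starved wild-type yeast cells, measured after 60 s and expressed relative to L-citrulline.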
Description: Inhibition of nitrogen-starved wild type sigma1278b yeast Gap1-mediated amino acid uptake at 5 mM after 60 secs relative to L-citrulline

Structure (SMILES) | inhibition [%]
CC(C)(C)OC(=O)NC1(C(=O)O)CCCC1 | < 15
CSCC[C@H](NC(=O)[C@H](C)N)C(=O)O (H-Ala-Met-OH) | > 30
N[C@@H](Cc1c[nH]cn1)C(=O)N[C@@H](Cc1c[nH]cn1)C(=O)O | 15
CC(C)C[C@H](NC(=O)[C@@H](N)CC(C)C)C(=O)N1CCC[C@H]1C(=O)O (H-Leu-Leu-Pro-OH) | < 15
CC(C)C[C@H](NC(=O)CCCN)C(=O)O | < 15
CC[C@H](C)[C@H](NC(=O)[C@H](C)N)C(=O)O (H-Ala-Ile-OH) | 15
CC(C)[C@H](N)C(N)=O | < 15
CC(C)(C)OC(=O)[C@@H](N)Cc1ccccc1 | < 15
NCC(=O)N[C@H](Cc1ccccc1)C(=O)O | > 30
CC(C)C[C@@H](NC(=O)CN)C(=O)O | < 15
CC(C)C(NC(=O)CN)C(=O)O (stereo in doubt) | < 15
C[C@H](N)C(=O)NCC(=O)O | > 30
NCC(=O)NCC(=O)N[C@@H](Cc1ccccc1)C(=O)O (H-Gly-Gly-Phe-OH) | < 15
CC(C)(C)OC(=O)N[C@@H](Cc1cnc[nH]1)C(=O)O | < 15
CC(C)C[C@H](NC(=O)[C@@H](N)[C@@H](C)O)C(=O)O (H-Thr-Leu-OH) | < 15
N=C(N)NCCC[C@H](NC(=O)[C@@H](N)CC(=O)O)C(=O)O (H-Asp-Arg-OH) | < 15
CC(C)C(NC(=O)CN)C(=O)O (racemic) | < 15
NCCC(N)=O | < 15
CC(C)C[C@H](NC(=O)[C@@H](N)C(C)C)C(=O)O (H-Val-Leu-OH) | < 15
C[C@H](N)C(=O)N[C@@H](CC(N)=O)C(=O)O (H-Ala-Asn-OH) | > 30
O=C(O)[C@@H]1CCCN1C(=O)[C@@H]1C[C@@H](O)CN1C(=O)[C@@H]1CCCN1 (H-Pro-[Hyp]-Pro-OH) | < 15

Continued, values first:

inhibition [%] | Structure (SMILES)
< 15 | CC(C)C[C@H](NC(=O)[C@@H](N)CC(C)C)C(=O)N[C@@H](Cc1cnc[nH]1)C(=O)O (H-Leu-Leu-His-OH)
< 15 | CC(=O)N[C@H](C(=O)O)[C@@H](C)OC(C)(C)C
> 30 | N[C@@H](Cc1ccco1)C(=O)O
< 15 | CC(C)C[C@H](NC(=O)[C@H](CC(C)C)NC(=O)[C@@H](N)C(C)C)C(=O)O (H-Val-Leu-Leu-OH)
< 15 | COC(=O)[C@@H](N)CCCCN
< 15 | N[C@@H](Cc1ccc(O)cc1)C(=O)N[C@@H](CCC(=O)O)C(=O)O (H-Tyr-Glu-OH)
15 | N[C@@H](CCC(=O)O)C(=O)N[C@@H](Cc1ccc(O)cc1)C(=O)N[C@@H](CCC(=O)O)C(=O)O (H-Glu-Tyr-Glu-OH)
< 15 | N[C@@H](CO)C(=O)NCC(=O)NCC(=O)O (H-Ser-Gly-Gly-OH)
< 15 | C[C@H](NC(=O)[C@H](Cc1cnc[nH]1)NC(=O)CN)C(=O)O (H-Gly-His-Ala-OH)
< 15 | C[C@@H](NC(=O)[C@@H](N)CCC(=O)O)C(=O)O
< 15 | CC(C)(C)OC(=O)NCCC[C@H](N)C(=O)O
< 15 | NCC(=O)N[C@@H](CC(=O)O)C(=O)O (H-Gly-Asp-OH)
< 15 | NCCS(=O)(=O)O
> 30 | CC[C@H](C)[C@H](N)C(=O)N[C@@H](CC(C)C)C(=O)N[C@@H](CC(C)C)C(=O)O (H-Ile-Leu-Leu-OH)
< 15 | NC(=O)[C@@H](N)Cc1c[nH]c2ccccc12
< 15 | CSCC[C@H](N)C(=O)N[C@@H](C)C(=O)O (H-Met-Ala-OH)
< 15 | CSCC[C@H](N)C(=O)N[C@@H](CCC(=O)O)C(=O)O (H-Met-Glu-OH)
< 15 | CSCC[C@H](NC(=O)[C@@H](N)Cc1ccccc1)C(=O)O (H-Phe-Met-OH)
< 15 | O=C(N[C@@H](CO)C(=O)O)OCc1ccccc1
< 15 | C[C@H](NC(=O)[C@@H](N)[C@@H](C)O)C(=O)O (H-Thr-Ala-OH)
< 15 | CC(C)C[C@@H](N)C(=O)NCC(=O)O (H-[dL]-Gly-OH)
